Key:
[1] = Curl efficiency after hair curling treatment; set-up: species or system human; details: for Curl Efficiency (%) After Treatment, 1 Wash and Dry: 1 wash with 5% SDS solution; for Curl Efficiency (%) After Treatment, 8 Washes and Dry: equivalent of 8 washes with 5% SDS solution
Description: (§1) The ability of each test composition to curl hair was established by measuring “curl efficiency”. Curl efficiency is a measure of curl tightness following a hair curling treatment. The higher the efficiency, the tighter the curl. We used a well-known method of measuring curl efficiency, wherein a portion of untreated straight hair of known length, Lu, is secured on an arrangement of pegs to form a sine wave pattern of five cycles, crest-to-crest. Because the pegs are fixed, the ideal length, Li, of the portion of hair when arranged into the five-cycle wave pattern, is known. Starting with a straight swatch of hair of length Lu, the ideal outcome would be a curled swatch of hair with a length of Li. Curl efficiency is a measure of how closely the ideal is attained.
(§2) Two types of hair samples were tested for curling; mixed sourced virgin Type 1Caucasian hair, and single sourced virgin Type 1 hair. For straightening, mixed sourced virgin Type 2C (very wavy) Caucasian hair was tested. Hair straightening test samples were prepared by collecting hair fibers into tresses, and clamping each tress at both ends. For those test samples that were to undergo a straightening treatment, the length, Lu, was measured between two previously determined points.
(§3) Each hair tress was wetted (reverse osmosis water). For curling, each hair tress was wound along a peg board to form a sine wave pattern of five cycles, as described above. For straightening, each hair tress was held on a board in a straight conformation, tension was applied, and the ends of the tress were secured. All test samples (curling or straightening) were allowed to dry before proceeding. Each board with a hair tress test sample was dipped for 10 seconds into a beaker with one of the hair perming compositions. After removing a board from solution, it was immediately placed in an oven for 20 minutes at 37° C. (normal body temperature). The test sample was removed from the oven, and rinsed for five minutes with 37° C. water, being careful not to allow the running water to fall directly on the hair tresses. After blotting with a paper towel, test samples were allowed to rest for five minutes at room temperature, for air oxidation to occur. The hair straightening test samples were removed from the board, blow dried and flat ironed at 200° C., which is commonly done in salon practice. At this point, the ideal length, Li, was measured between the two previously determined point mentioned above. Thereafter, each sample was rebound to the board.
(§4) Each bound hair tress was submerged for ten seconds in a 2% solution of H2O2 to neutralize the reducing agent and promote S-S bond formation, so that the hair tress would retain a desired shape (sine wave pattern or straight) when removed from the board. Each hair tress rested at room temperature for about five minutes, then was rinsed under 37° C. running water for five minutes, and subsequently blotted with a paper towel. Each test sample hair tress was removed from the board, laid on a flat surface, and allowed to dry. The fully permed dry tresses were washed in 5% SDS (sodium dodecyl sulfate) solution (which simulates salon practice) and allowed to dry overnight.
(§5) For the curling test samples, the length, Lt, of five waves, crest to crest was measured. For the straightening test samples, the final length, Lt, was measured between the two previously determined points. At this point, differential scanning calorimetry (DSC) measurements were made on a portion of each hair tress test sample. Also, for longevity performance, each tress was subjected to the equivalent of eight hand washings in 5% SDS solution using the GyroWash color fastness to laundering tester, and allowed to dry, before another length measurement, Lt, was made.
(§6) Curl efficiencies were computed using Equation 1.
(§7) [formula] • Lu=length of the untreated hair tress • Lt=crest-to-crest length of the five-wave portion of the treated hair tress • Li=ideal length of curled hair […]

[2] = DSC keratin denaturation temperature change after curling treatment; set-up: species or system human; details: for ΔT (TUntreated−TAlkalizer, keratin denaturation temperature): Type 1 Chinese hair after curling treatment, larger ΔT indicates more damage; for damage to hair (in words): hair curling treatment, Type 1 Chinese hair
Description: (§8) This damage occurs at the level of keratin proteins.
(§9) Untreated hair was used as a control.
(§10) A larger ΔT indicates more damage.

[3] = Curl efficiency after hair curling treatment; set-up: species or system human; % Change In Curl Efficiency From 1 to 8 Washes: concentration or dose not given beside the values; details: for Curl Efficiency (%) After Treatment, 1 Wash and Dry: 1 wash with 5% SDS solution; for Curl Efficiency (%) After Treatment, 8 Washes and Dry: equivalent of 8 washes with 5% SDS solution
Description: as §1, §2, §3, §4, §5, §6, §7

[4] = pH of hair perming composition; type: physicochemical; details: for pH: hair perming composition: base of Table 2 (7.50% thioglycolic acid) plus alkalizer, same molar percentage of alkalizer
Description: For testing, we prepared the hair perming compositions shown by Tables 2 and 3, below. […] All compositions contain the same molar percentage of alkalizer, the water content being adjusted accordingly.

[5] = Straightening efficiency after hair straightening treatment; set-up: species or system human; details: Type 2C Caucasian hair; for Straightening Efficiency (%) After Treatment, 1 Wash and Dry: 1 wash with 5% SDS solution
Description: The ability of each test composition to straighten curly hair was established by measuring “straightening efficiency”. Straightening efficiency represents the degree to which curly hair is made straight by a hair straightening treatment. We start with a curly, untreated hair tress of length Lu. The tress has an ideal straight length of Li, which is the length of the untreated tress when flat ironed to its maximum, straight length. After treatment the tress has a length of Lt. Straightening efficiency is the gain in length as a percentage of the maximum possible gain in length. […] A straightening efficiency of 100% means that the treated tress retained the maximum possible length.
as §2, §3, §4, §5
Straightening efficiencies were computed using Equation 2.
[formula] • Lu=length of the untreated hair tress • Lt=length of treated hair tress • Li=ideal length of straightened hair
(Li−Lu) represents the maximum possible increase in length as a result of treatment. […]

[6] = DSC keratin denaturation temperature change after straightening treatment; set-up: species or system human; details: for ΔT (TUntreated−TAlkalizer, keratin denaturation temperature): Type 3 Caucasian hair after straightening, larger ΔT indicates more damage; for damage to hair (in words): hair straightening treatment, Type 3 Caucasian hair
Description: as §8, §9, §10

[7] = DSC keratin denaturation temperature change after curling treatment; details: for ΔT (TUntreated−TAlkalizer, keratin denaturation temperature): Type 1 Caucasian hair after curling treatment, larger ΔT indicates more damage; for damage to hair (in words): hair curling treatment, Type 1 Caucasian hair
Description: It is known that the denaturation of keratin in hair can be detected by differential scanning calorimetry (DSC). DSC is a thermal analysis technique used to measure phase transition temperatures and heat of transformation (enthalpy) for endothermic and exothermic reactions.
For all of the test samples discussed above, DSC measurements were performed using the Discovery DSC 2500 (from TA Instruments. New Castle, DE). The experiments were carried out over a temperature range of 40° C. to 200° C., with a scan rate of 5° C./min under nitrogen protection. DSC samples were prepared by cutting tress samples into pieces (0.1 to 1.0 mm in size) and weighing. The hair samples were mixed with deionized water, and then sealed in high volume pans for at least 6 hours before measuring. The phase transition temperature (keratin denaturation temperature) of each hair sample was analyzed using TRIOS software (Discovery DSC 2500). Untreated hair was used as a control.
Each hair sample was analyzed at least twice, and the average temperature was obtained for data analysis. This was subtracted from the denaturation temperature of the control sample (ΔT=TUntreated−TAlkalizer). A larger ΔT indicates more damage.

| SMILES | pH of alkalizer composition ([4]; Table 7) | pH of alkalizer composition ([4]; Table 8) | pH of alkalizer composition ([4]; Table 9) | pH [4] | % Change In Curl Efficiency From 1 to 8 Washes ([1]; Type 1 Caucasian hair) [%] | Curl Efficiency (%) After Treatment, 1 Wash and Dry ([1]; Type 1 Caucasian hair) [%] | Curl Efficiency (%) After Treatment, 8 Washes and Dry ([1]; Type 1 Caucasian hair) [%] | ΔT (TUntreated−TAlkalizer, keratin denaturation temperature) [2] [C. °] | damage to hair (in words) [2] | % Change In Curl Efficiency From 1 to 8 Washes ([3]; Type 1 Chinese hair) [%] | Curl Efficiency (%) After Treatment, 1 Wash and Dry ([3]; Type 1 Chinese hair) [%] | Curl Efficiency (%) After Treatment, 8 Washes and Dry ([3]; Type 1 Chinese hair) [%] | Straightening Efficiency (%) After Treatment, 1 Wash and Dry [5] [%] | ΔT (TUntreated−TAlkalizer, keratin denaturation temperature) [6] [°C] | damage to hair (in words) [6] | ΔT (TUntreated−TAlkalizer, keratin denaturation temperature) [7] [°C] | damage to hair (in words) [7] | also measured |
| --- | --- | --- | --- | --- | --- | --- | --- | --- | --- | --- | --- | --- | --- | --- | --- | --- | --- | --- |
| NC(CO)CO [Serinol, 2-Amino-1,3-propanediol] | 8.68 | 8.68 | 8.68 | 8.68 | −8.15 | 45.79 | 42.06 | 0.62 | less damage than ammonium hydroxide | −14.82 | 50.47 | 42.99 | 88.24 | 0.50 | less damage than ammonium hydroxide | 1.76 | less damage than ammonium hydroxide | – |
| CC(N)(CO)CO [AMPD, 2-Amino-2-methyl-1,3-propanediol] | 9.09 | 9.04 | 9.04 | 9.04 | – | – | – | 0.68 | less damage than ammonium hydroxide | – | – | – | – | 0.32 | – | 1.66 | – | straightening (in words) [5]: performed better than ammonium hydroxide and MEA, but not as well as AMP |
| N.O [Ammonium hydroxide, reference compound] | 9.14 | 9.14 | 9.14 | 9.14 | – | – | – | 0.80 | – | – | – | – | – | – | – | – | – | – |
| NCCO [MEA, Monoethanolamine, reference compound] | 9.40 | 9.40 | 9.40 | 9.40 | −7.41 | 50.47 | 46.73 | – | – | −13.43 | 64.77 | 56.07 | 65.38 | – | – | – | – | – |
| CCC(N)(CO)CO [AEPD, 2-Amino-2-ethyl-1,3-propanediol] | 9.09 | 9.09 | 8.98 | 9.09 | −6.40 | 43.93 | 41.12 | 1.31 | – | −15.09 | 53.93 | 45.79 | 94.70 | 1.13 | – | 2.36 | – | – |

Further lines, with some results ahead:

| pH of alkalizer composition ([4]; Table 7) | pH of alkalizer composition ([4]; Table 8) | pH of alkalizer composition ([4]; Table 9) | pH [4] | SMILES | % Change In Curl Efficiency From 1 to 8 Washes ([1]; Type 1 Caucasian hair) [%] | Curl Efficiency (%) After Treatment, 1 Wash and Dry ([1]; Type 1 Caucasian hair) [%] | Curl Efficiency (%) After Treatment, 8 Washes and Dry ([1]; Type 1 Caucasian hair) [%] | ΔT (TUntreated−TAlkalizer, keratin denaturation temperature) [2] [C. °] | damage to hair (in words) [2] | % Change In Curl Efficiency From 1 to 8 Washes ([3]; Type 1 Chinese hair) [%] | Curl Efficiency (%) After Treatment, 1 Wash and Dry ([3]; Type 1 Chinese hair) [%] | Curl Efficiency (%) After Treatment, 8 Washes and Dry ([3]; Type 1 Chinese hair) [%] | Straightening Efficiency (%) After Treatment, 1 Wash and Dry [5] [%] | ΔT (TUntreated−TAlkalizer, keratin denaturation temperature) [6] [°C] | damage to hair (in words) [6] | ΔT (TUntreated−TAlkalizer, keratin denaturation temperature) [7] [°C] | damage to hair (in words) [7] | also measured |
| --- | --- | --- | --- | --- | --- | --- | --- | --- | --- | --- | --- | --- | --- | --- | --- | --- | --- | --- |
| 9.18 | 9.18 | 9.18 | 9.18 | NCC(O)CO (stereo not drawn) [Isoserinol, 3-Amino-1,2-propanediol] | −7.69 | 48.60 | 44.86 | 2.51 | did not perform as well as the other alkalizers | −10.93 | 59.81 | 53.27 | 97.30 | 2.17 | – | 3.07 | – | curl after the equivalent of 8 washes (in words) ([1]; Caucasian hair): ranked second for curl; curl lost after the equivalent of 8 washes, as percentage of initial curl (in words) ([1]; Caucasian hair): comparable to or better than the standards; imparting curl (in words) ([1]; Type 1 Caucasian hair): next best at imparting curl; curl after the equivalent of 8 washes (in words) ([3]; Chinese hair): ranked second for curl; curl lost after the equivalent of 8 washes, as percentage of initial curl (in words) ([3]; Chinese hair): comparable to or better than the standards; imparting curl (in words) ([3]; Type 1 Chinese hair): next best at imparting curl |
| 10.18 | 10.18 | 10.18 | 10.18 | CN(C)C(C)(C)CO [DMAMP, 2-Dimethylamino-2-methyl-1-propanol] | −20.91 | 44.86 | 35.48 | 5.78 | caused the most damage | −17.06 | 58.60 | 48.60 | 93.75 | 1.43 | comparatively little damage | 6.06 | almost as much damage as NaOH | performance in curling, curl retention and degree of damage (FIG. 1, in words) ([1]; Type 1 Caucasian hair): did not perform as well as ammonium hydroxide, AMP or MEA; performance in curling, curl retention and degree of damage (FIG. 2, in words) ([3]; Type 1 Chinese hair): did not perform as well as ammonium hydroxide, AMP or MEA; performance in straightening and degree of damage versus ammonium hydroxide, AMP and MEA (FIG. 3, in words) [5]: did perform well |
| 8.36 | 8.36 | 8.36 | 8.36 | NC(CO)(CO)CO [Tris, Tromethamine] | – | – | – | −0.77 | less damage than ammonium hydroxide | – | – | – | – | 0.07 | less damage than ammonium hydroxide | 1.11 | less damage than ammonium hydroxide | straightening (in words) [5]: performed better than ammonium hydroxide and MEA, but not as well as AMP |

Reference: US20250127698A1, “Hair Perming Compositions With Amine Derivatives” (ELC Management LLC, priority 2023, published 2025)
